Test results from PMC8015227, “Understanding the Metabolism of Proteolysis Targeting Chimeras (PROTACs): The Next Step toward Pharmaceutical Applications” (Journal of Medicinal Chemistry, 2020).
Where two headings read alike, the source gives them in different places.

Test: Metabolic stability in cryopreserved human hepatocytes
Type: in vitro ADME
Conditions: human, cryopreserved human hepatocytes (pooled, suspension)
[1] = Figures 3-5, cryopreserved human hepatocytes, read-out: half-life (t1/2)
[2] = Table S1, PROTACs, cryopreserved human hepatocytes, read-out: t1/2
[3] = supplement CSV, human hepatocytes, read-out: HLH t1/2

Row | half-life at 1 µM [1] [h] | half-life at 1 µM [2] [h] | half-life at 1 µM [3] [h] | Structure (SMILES)
1 | – | 2.52 | 2.52 | Cc1ncsc1-c1ccc([C@H](C)NC(=O)[C@@H]2C[C@@H](O)CN2C(=O)[C@@H](NC(=O)COCCCOCCNC(=O)C[C@@H]2N=C(c3ccc(Cl)cc3)c3c(sc(C)c3C)-n3c(C)nnc32)C(C)(C)C)cc1 [Compound 10, ARV-771, reference compound]
2 | – | 0.69 | 0.69 | O=C(COc1cccc2c1C(=O)N(C1CCC(=O)NC1=O)C2=O)NCCCCCCCCNC(=O)c1ccc2c(c1)nc(Nc1cccc(Cl)c1)c1ccncc12 (centres unmarked) [Compound 12, 5-((3-Chlorophenyl)amino)-N-(8-(2-((2-(2,6-dioxopiperidin-3-yl)-1,3-dioxoisoindolin-4-yl)oxy)acetamido)octyl)benzo[c][2,6]naphthyridine-8-carboxamide]
3 | – | 0.56 | 0.56 | O=C(COc1cccc2c1C(=O)N(C1CCC(=O)NC1=O)C2=O)NCCCCCCCCCCNC(=O)c1ccc2c(c1)nc(Nc1cccc(Cl)c1)c1ccncc12 (centres unmarked) [Compound 13, 5-((3-Chlorophenyl)amino)-N-(10-(2-((2-(2,6-dioxopiperidin-3-yl)-1,3-dioxoisoindolin-4-yl)oxy)acetamido)decyl)benzo[c][2,6]naphthyridine-8-carboxamide]

Further lines, the compound ahead of its results:

Row | Structure (SMILES) | half-life at 1 µM [1] [h] | half-life at 1 µM [2] [h] | half-life at 1 µM [3] [h]
4 | Cc1sc2c(c1C)C(c1ccc(Cl)cc1)=N[C@@H](CC(=O)NCCCCCCCCNC(=O)COc1cccc3c1C(=O)N(C1CCC(=O)NC1=O)C3=O)c1nnc(C)n1-2 (some centres unmarked) [Compound 2, dBet6, reference compound] | 0.303 | 0.303 | 0.303
5 | Cc1sc2c(c1C)C(c1ccc(Cl)cc1)=N[C@@H](CC(=O)Nc1ccc(OCCOCCOCCOCCNc3cccc4c3C(=O)N(C3CCC(=O)NC3=O)C4=O)cc1)c1nnc(C)n1-2 (some centres unmarked) [Compound 3, ARV-825, reference compound] | – | 0.462 | 0.462
6 | Cc1sc2c(c1C)C(c1ccc(Cl)cc1)=N[C@@H](CC(=O)NCCCN1CCN(CCCNc3cccc4c3C(=O)N(C3CCC(=O)NC3=O)C4=O)CC1)c1nnc(C)n1-2 (stereo partly drawn) [Compound 6, 2-((S)-4-(4-Chlorophenyl)-2,3,9-trimethyl-6H-thieno[3,2-f][1,2,4]triazolo[4,3-a][1,4]diazepin-6-yl)-N-(3-(4-(3-((2-(2,6-dioxopiperidin-3-yl)-1,3-dioxoisoindolin-4-yl)amino)propyl)piperazin-1-yl)propyl)acetamide] | 1.45 | 1.45 | 1.45
7 | Cc1ncsc1-c1ccc(CNC(=O)[C@@H]2C[C@@H](O)CN2C(=O)[C@@H](NC(=O)COCCOCCOCCNC(=O)C[C@@H]2N=C(c3ccc(Cl)cc3)c3c(sc(C)c3C)-n3c(C)nnc32)C(C)(C)C)cc1 [Compound 7, MZ1, reference compound] | – | 3.5 | 3.5
8 | Cc1ncsc1-c1ccc([C@H](C)NC(=O)[C@@H]2C[C@@H](O)CN2C(=O)[C@@H](NC(=O)CCCCCCNC(=O)C[C@@H]2N=C(c3ccc(Cl)cc3)c3c(sc(C)c3C)-n3c(C)nnc32)C(C)(C)C)cc1 [Compound 8, (2S,4R)-1-((S)-2-(7-(2-((S)-4-(4-Chlorophenyl)-2,3,9-trimethyl-6H-thieno[3,2-f][1,2,4]triazolo[4,3-a][1,4]diazepin-6-yl)acetamido)heptanamido)-3,3-dimethylbutanoyl)-4-hydroxy-N-((S)-1-(4-(4-methylthiazol-5-yl)phenyl)ethyl)pyrrolidine-2-carboxamide] | – | 1.36 | 1.36
9 | Cc1ncsc1-c1ccc([C@H](C)NC(=O)[C@@H]2C[C@@H](O)CN2C(=O)[C@@H](NC(=O)COCCOCCNC(=O)C[C@@H]2N=C(c3ccc(Cl)cc3)c3c(sc(C)c3C)-n3c(C)nnc32)C(C)(C)C)cc1 [Compound 9, (2S,4R)-1-((S)-2-(tert-Butyl)-14-((S)-4-(4-chlorophenyl)-2,3,9-trimethyl-6H-thieno[3,2-f][1,2,4]triazolo[4,3-a][1,4]diazepin-6-yl)-4,13-dioxo-6,9-dioxa-3,12-diazatetradecanoyl)-4-hydroxy-N-((S)-1-(4-(4-methylthiazol-5-yl)phenyl)ethyl)pyrrolidine-2-carboxamide] | – | 2.28 | 2.28
